Results as given in patent US8952024B2, “Herbicidal pyrimidone derivatives” (E I du Pont de Nemours and Company, priority 2009, dated 2015).

What was measured:
Format in all cases: in vivo
[1] = test system: canarygrass (Phalaris minor); assay: Test B postemergence plant response; details: Postemergence
Summary of the method: (§1)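 Plants at the 1- to 4-leaf stage (2 to 18 cm tall), grown in pots of peat moss/vermiculite medium with wetting agent and starter nutrients, received postemergence applications of test chemicals. After 13 to 15 days in a greenhouse, injury was rated visually against untreated controls on a 0 (no effect) to 100 (complete control) scale.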

[2] = test system: chickweed (Stellaria media); assay: Test B postemergence plant response; details: Postemergence
Summary of the method: as §1

[3] = test system: windgrass (Apera spica-venti); assay: Test B postemergence plant response; details: Postemergence
Summary of the method: as §1

[4] = test system: pigweed (Amaranthus retroflexus); assay: Test B pre-/postemergence plant response
Source text: (§2) Seeds of plant species selected from blackgrass (Alopecurus myosuroides), downy bromegrass (Bromus tectorum), green foxtail (Setaria viridis), Italian ryegrass (Lolium multiflorum), wheat (Triticum aestivum), wild oat (Avena fatua), deadnettle (henbit deadnettle, Lamium amplexicaule), galium (catchweed bedstraw, Galium aparine), bermudagrass (Cynodon dactylon), Surinam grass (Brachiaria decumbens), cocklebur (Xanthium strumarium), corn (Zea mays), large crabgrass (Digitaria sanguinalis), woolly cupgrass (Eriochloa villosa), giant foxtail (Setaria faberii), goosegrass (Eleusine indica), johnsongrass (Sorghum halepense), kochia (Kochia scoparia), lambsquarters (Chenopodium album), morningglory (Ipomoea coccinea), nightshade (eastern black nightshade, Solanum ptycanthum), yellow nutsedge (Cyperus esculentus), pigweed (Amaranthus retroflexus), ragweed (common ragweed, Ambrosia elatior), Russian thistle (Salsola kali), soybean (Glycine max), sunflower (common oilseed sunflower, Helianthus annuus) and velvetleaf (Abutilon theophrasti) were planted into a blend of loam soil and sand and treated preemergence with test compounds formulated in a non-phytotoxic solvent mixture which included a surfactant.
(§3) At the same time, plants selected from these crop and weed species and also winter barley (Hordeum vulgare), canarygrass (Phalaris minor), chickweed (Stellaria media) and windgrass (Apera spica-venti) were planted in pots containing Redi-Earth® planting medium (Scotts Company, 14111 Scottslawn Road, Marysville, Ohio 43041) comprising spaghnum peat moss, vermiculite, wetting agent and starter nutrients and treated with postemergence applications of some of the test chemicals formulated in the same manner. Plants ranged in height from 2 to 18 cm (1- to 4-leaf stage) for postemergence treatments.
(§4) Treated plants and controls were maintained in a greenhouse for 13 to 15 days, after which time all treated plants were visually evaluated and compared to controls. Plant response ratings, summarized in Table B, are based on a scale of 0 to 100 where 0 is no effect and 100 is complete control. A dash (-) response means no test result.

[5] = test system: Surinam grass (Brachiaria decumbens); assay: Test B pre-/postemergence plant response
Source text: as §2, §3, §4

[6] = test system: Italian ryegrass (Lolium multiflorum); assay: Test B pre-/postemergence plant response
Source text: as §2, §3, §4

[7] = test system: cocklebur (Xanthium strumarium); assay: Test B pre-/postemergence plant response
Source text: as §2, §3, §4

[8] = test system: morningglory (Ipomoea coccinea); assay: Test B pre-/postemergence plant response
Source text: as §2, §3, §4

[9] = test system: downy bromegrass (Bromus tectorum); assay: Test B pre-/postemergence plant response
Source text: as §2, §3, §4

[10] = test system: blackgrass (Alopecurus myosuroides); assay: Test B pre-/postemergence plant response
Source text: as §2, §3, §4

[11] = test system: corn (Zea mays); assay: Test B pre-/postemergence plant response
Source text: as §2, §3, §4

[12] = test system: giant foxtail (Setaria faberii); assay: Test B pre-/postemergence plant response
Source text: as §2, §3, §4

[13] = test system: wild oat (Avena fatua); assay: Test B pre-/postemergence plant response
Source text: as §2, §3, §4

[14] = 31 g ai/ha, 0 to 100 scale (0 no effect, 100 complete control)
[15] = 8 g ai/ha, Postemergence, 0 to 100 scale
[16] = 16 g ai/ha, Postemergence, 0 to 100 scale
[17] = Postemergence, 31 g ai/ha, 0 to 100 scale (0 no effect, 100 complete control)
[18] = 62 g ai/ha, postemergence, 0 is no effect, 100 is complete control, 13 to 15 days
[19] = 31 g ai/ha, scale 0 to 100 (0 no effect, 100 complete control)
[20] = 62 g ai/ha, scale 0 (no effect) to 100 (complete control), 13 to 15 days
[21] = 125 g ai/ha, visual rating after 13 to 15 days, scale 0 (no effect) to 100 (complete control)
[22] = 250 g ai/ha, Preemergence, 0 to 100 scale
[23] = Postemergence, 62 g ai/ha, scale 0 (no effect) to 100 (complete control), 13 to 15 days
[24] = Postemergence, 125 g ai/ha, visual rating after 13 to 15 days, scale 0 (no effect) to 100 (complete control)
[25] = Preemergence, 31 g ai/ha, scale 0 to 100 (0 no effect, 100 complete control)
[26] = Preemergence, 125 g ai/ha, 0 to 100 scale
[27] = Preemergence, 62 g ai/ha, scale 0 to 100 (0 no effect, 100 complete control)
[28] = Postemergence, 31 g ai/ha, scale 0 to 100 (0 no effect, 100 complete control)
[29] = Postemergence, 250 g ai/ha, scale 0 to 100

## Cc1ccccc1-n1c(-c2cc(F)cc(F)c2)ncc(C(=O)C2=C(O)CCCC2=O)c1=O [Compound 159]
[1]; 8 g ai/ha, 0 to 100 scale
  Plant response rating, Canarygrass: 25
[1]; 16 g ai/ha, 0 to 100 scale
  Plant response rating, Canarygrass: 40
[1]; [14]
  Plant response rating, Canarygrass: 80
[2]; 8 g ai/ha, 0 to 100 scale
  Plant response rating, Chickweed: 80
[2]; 16 g ai/ha, 0 to 100 scale
  Plant response rating, Chickweed: 100
[2]; [14]
  Plant response rating, Chickweed: 100
[3]; 8 g ai/ha, 0 to 100 scale
  Plant response rating, Windgrass: 10
[3]; 16 g ai/ha, 0 to 100 scale
  Plant response rating, Windgrass: 40
[3]; [14]
  Plant response rating, Windgrass: 45
[4]; [15]
  Plant response rating, Pigweed: 55
[4]; [16]
  Plant response rating, Pigweed: 75
[4]; [17]
  Plant response rating, Pigweed: 95
[5]; [15]
  Plant response rating, Surinam Grass: 65
[5]; [16]
  Plant response rating, Surinam Grass: 65
[5]; [17]
  Plant response rating, Surinam Grass: 75
[6]; [15]
  Plant response rating, Ryegrass, Italian: 0
[6]; [16]
  Plant response rating, Ryegrass, Italian: 0
[6]; [17]
  Plant response rating, Ryegrass, Italian: 30
[7]; [15]
  Plant response rating, Cocklebur: 75
[7]; [16]
  Plant response rating, Cocklebur: 80
[7]; [17]
  Plant response rating, Cocklebur: 95
[8]; [15]
  Plant response rating, Morningglory: 0
[8]; [16]
  Plant response rating, Morningglory: 10
[8]; [17]
  Plant response rating, Morningglory: 60
[9]; [15]
  Plant response rating, Bromegrass, Downy: 15
[9]; [16]
  Plant response rating, Bromegrass, Downy: 15
[9]; [18]
  Bromegrass, Downy plant response rating (0 to 100 scale): 50
[9]; [17]
  Plant response rating, Bromegrass, Downy: 50
[10]; [15]
  Plant response rating, Blackgrass: 0
[10]; [16]
  Plant response rating, Blackgrass: 5
[10]; [18]
  Blackgrass plant response rating (0 to 100 scale): 25
[10]; [17]
  Plant response rating, Blackgrass: 20
[11]; [15]
  Plant response rating, Corn: 15
[11]; [16]
  Plant response rating, Corn: 25
[11]; [17]
  Plant response rating, Corn: 60
[12]; [15]
  Plant response rating, Foxtail, Giant: 75
[12]; [16]
  Plant response rating, Foxtail, Giant: 80
[12]; [17]
  Plant response rating, Foxtail, Giant: 85
[13]; [15]
  Plant response rating, Oat, Wild: 0
[13]; [16]
  Plant response rating, Oat, Wild: 35
[13]; [17]
  Plant response rating, Oat, Wild: 60

## O=C1CCCC(O)=C1C(=O)c1cnc(-c2ccccc2)n(-c2cccc(Br)c2)c1=O [Compound 38]
[1]; [19]
  Plant response rating, Canarygrass: 10
[1]; [20]
  Plant response rating, Canarygrass: 10
[1]; [21]
  Plant response rating, Canarygrass: 10
[1]; 250 g ai/ha, scale 0 to 100
  Canarygrass plant response rating: 45
[2]; [19]
  Plant response rating, Chickweed: 85
[2]; [20]
  Plant response rating, Chickweed: 90
[2]; [21]
  Plant response rating, Chickweed: 100
[2]; 250 g ai/ha, scale 0 to 100
  Chickweed plant response rating: 100
[3]; [20]
  Plant response rating, Windgrass: 80
[3]; [21]
  Plant response rating, Windgrass: 85
[4]; [22]
  Plant response rating, Pigweed: 100
[4]; [23]
  Plant response rating, Pigweed: 98
[4]; [24]
  Plant response rating, Pigweed: 98
[4]; [25]
  Plant response rating, Pigweed: 100
[4]; [26]
  Pigweed plant response rating: 100
[5]; [22]
  Plant response rating, Surinam Grass: 80
[5]; [23]
  Plant response rating, Surinam Grass: 85
[5]; [24]
  Plant response rating, Surinam Grass: 90
[5]; [25]
  Plant response rating, Surinam Grass: 40
[5]; [26]
  Surinam Grass plant response rating: 65
[6]; [22]
  Plant response rating, Ryegrass, Italian: 40
[6]; [23]
  Plant response rating, Ryegrass, Italian: 50
[6]; [24]
  Plant response rating, Ryegrass, Italian: 60
[6]; [25]
  Plant response rating, Ryegrass, Italian: 0
[6]; [26]
  Ryegrass, Italian plant response rating: 5
[7]; [22]
  Plant response rating, Cocklebur: 90
[7]; [25]
  Plant response rating, Cocklebur: 0
[7]; [27]
  Plant response rating, Cocklebur: 10
[7]; [26]
  Cocklebur plant response rating: 25
[8]; [22]
  Plant response rating, Morningglory: 100
[8]; [23]
  Plant response rating, Morningglory: 70
[8]; [24]
  Plant response rating, Morningglory: 75
[8]; [25]
  Plant response rating, Morningglory: 0
[8]; [27]
  Plant response rating, Morningglory: 0
[8]; [26]
  Morningglory plant response rating: 0
[9]; [22]
  Plant response rating, Bromegrass, Downy: 40
[9]; [28]
  Plant response rating, Bromegrass, Downy: 50
[9]; [23]
  Plant response rating, Bromegrass, Downy: 70
[9]; [24]
  Plant response rating, Bromegrass, Downy: 85
[9]; [29]
  Bromegrass, Downy plant response rating: 85
[9]; [25]
  Plant response rating, Bromegrass, Downy: 0
[9]; [27]
  Plant response rating, Bromegrass, Downy: 0
[9]; [26]
  Bromegrass, Downy plant response rating: 5
[10]; [22]
  Plant response rating, Blackgrass: 40
[10]; [28]
  Plant response rating, Blackgrass: 5
[10]; [23]
  Plant response rating, Blackgrass: 15
[10]; [24]
  Plant response rating, Blackgrass: 15
[10]; [29]
  Blackgrass plant response rating: 40
[10]; [25]
  Plant response rating, Blackgrass: 0
[10]; [27]
  Plant response rating, Blackgrass: 5
[10]; [26]
  Blackgrass plant response rating: 30
[11]; [22]
  Plant response rating, Corn: 0
[11]; [28]
  Plant response rating, Corn: 55
[11]; [23]
  Plant response rating, Corn: 70
[11]; [24]
  Plant response rating, Corn: 75
[11]; [29]
  Corn plant response rating: 90
[11]; [25]
  Plant response rating, Corn: 0
[11]; [27]
  Plant response rating, Corn: 0
[11]; [26]
  Corn plant response rating: 0
[12]; [22]
  Plant response rating, Foxtail, Giant: 95
[12]; [28]
  Plant response rating, Foxtail, Giant: 95
[12]; [23]
  Plant response rating, Foxtail, Giant: 98
[12]; [24]
  Plant response rating, Foxtail, Giant: 100
[12]; [29]
  Foxtail, Giant plant response rating: 100
[12]; [25]
  Plant response rating, Foxtail, Giant: 0
[12]; [27]
  Plant response rating, Foxtail, Giant: 40
[12]; [26]
  Foxtail, Giant plant response rating: 80
[13]; [22]
  Plant response rating, Oat, Wild: 20
[13]; [23]
  Plant response rating, Oat, Wild: 75
[13]; [24]
  Plant response rating, Oat, Wild: 80
[13]; [25]
  Plant response rating, Oat, Wild: 0
[13]; [26]
  Oat, Wild plant response rating: 0
